Results on one compound are retold here after patent US4886793A, “Penem derivatives” (Farmitalia Carlo Erba, S.r.l., priority 1986, dated 1989).

Molecules are shown by their SMILES.

Data set [1] in a line: Pharmacokinetics in mouse. The conditions noted are these: in vivo. An excerpt: (§1) In vivo data for (5R,6S)-6-[(1R)-hydroxy ethyl]-2-[4-(1-pyridinio)methylphenyl]oxymethylpenem-3-carboxylate (example 1, Compound 5,FCE 24386)
In the next data set the test system is Escherichia coli G II. The experiment in a line: Experimental infection in mice, Escherichia coli G II. It is filed as in vivo, Escherichia coli G II (infected mice). The conditions noted are these: intraperitoneal infection, 3 × LD50 challenge, treatments at 30, 90 and 360 minutes after infection. The procedure: (§2) ^1 Intraperitoneal infection in mice with a 3 × LD50
(§3) challenge; treatments at 30, 90 and 360 minutes after infection.

The nature of another data set: Pharmacokinetics in rat. The conditions noted are these: in vivo.
Excerpt: as §1

For data set [2], the system named is Staphilococcus aureus Smith. The experiment in a line: Experimental infection in mice, Staphilococcus aureus Smith. Particulars: Mus musculus, intraperitoneal infection, 3 × LD50 challenge, treatments at 30, 90 and 360 minutes after infection. It is filed as in vivo, Staphilococcus aureus Smith (infected mice). The method, then:
as §2, §3

Regarding `C[C@@H](O)[C@H]1C(=O)N2C(C(=O)[O-])=C(COc3ccc(C[n+]4ccccc4)cc3)S[C@H]12` [Compound 5, (5R,6S)-6-[(1R)-hydroxyethyl]-2-[4-(1-pyridinio)methylphenyl]oxymethylpenem-3-carboxylate], the Fa in data set [1] (sc, Mouse, s.c., read-out: % Absorption s.c.) was 100%. Further, the AUC (commonly concentration integrated over time) in data set [1] (mouse) was 56000 ng·h/mL; in the data set “Pharmacokinetics in rat” it was 103000 ng·h/mL. Besides, the half-life in data set [1] (mouse, read-out: t 1/2β) is 27 min; in “Pharmacokinetics in rat” (read-out: t 1/2β) it was 28 min. For the same compound, the median effective dose (ED50) – broadly, the dose that gives a 50% effect, or the effect in half of the subjects – is 1.55 mg/kg in the data set on Escherichia coli G II and below 0.032 mg/kg in data set [2].
